Experimental findings from patent US5696117A, “Benzoxazine antimicrobial agents” (Ortho Pharmaceutical Corporation, priority 1995, dated 1997) are described below.

The target of the assay is T1, Kinase A and SpoOF (Bacillus subtilis, UniProt P16497).
T1 construct: made in house; host or cells: recombinant E. coli (overexpression)
T1 sequence (P16497 1-606): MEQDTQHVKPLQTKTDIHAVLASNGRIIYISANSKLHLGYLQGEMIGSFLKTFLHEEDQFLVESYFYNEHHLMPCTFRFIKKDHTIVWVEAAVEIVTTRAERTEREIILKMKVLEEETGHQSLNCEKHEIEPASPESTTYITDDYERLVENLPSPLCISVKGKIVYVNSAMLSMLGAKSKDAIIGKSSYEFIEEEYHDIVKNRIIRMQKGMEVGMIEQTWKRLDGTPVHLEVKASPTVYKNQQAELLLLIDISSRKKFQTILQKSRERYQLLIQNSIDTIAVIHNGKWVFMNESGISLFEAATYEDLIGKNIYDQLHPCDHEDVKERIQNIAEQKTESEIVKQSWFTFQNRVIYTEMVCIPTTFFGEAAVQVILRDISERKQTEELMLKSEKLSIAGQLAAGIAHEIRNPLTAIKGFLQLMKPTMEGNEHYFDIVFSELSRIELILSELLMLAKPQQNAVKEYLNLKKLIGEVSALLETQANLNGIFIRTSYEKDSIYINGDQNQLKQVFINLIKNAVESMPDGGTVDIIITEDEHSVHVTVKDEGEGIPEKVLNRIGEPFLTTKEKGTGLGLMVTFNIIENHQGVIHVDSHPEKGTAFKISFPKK
As to the kind of experiment: Autophosphorylation of Kinase A and Transphosphorylation of SpoOF Assay (HPK in vitro assay). The class given is biochemical. The conditions noted are these: inhibition of KinA autophosphorylation / SpoOF transphosphorylation, inhibitor concentrations from 1 to 500 μM. As to the method: 1. Autophosphorylation of Kinase A and Transphosphorylation of SpoOF Assay
To study the effect of the compounds of the present invention on the signal transduction process in bacteria, the inhibiting effect of the compounds on the sporulation operon proteins Kinase A and SpoOF was examined. Specifically, the inhibition of autophosphorylation of Kinase A and the transphosphorylation of SpoOF was determined in the following assays. The SpoOF response regulator is the primary substrate for phosphorylation by the protein kinase, Kin A, involved in the sporulation process in bacteria. See D. Burbulys, K. A. Trach, J. A. Hoch, Cell, 64, 545-552 (1991). SpoOF and KinA were prepared from recombinant E. coli overexpressing the proteins (J. Cavanagh et al, Amino Acids, 6, 131-140 (1994) and references therein).
The following stock reagents were either prepared and used promptly or stored at the indicated temperature:
8× Salts: 2M KCl (5 mL), 1M MgCl2 (800 mL), 1M CaCl2 (100 mL), 10 mg/mL phenylmethylsulfonyl fluoride (200 mL), 1M dithioreitol (50 mL), 0.25M Na2 EDTA (32 mL) and H2 O 3.82 mL (-20° C.)
5× Loading Dye: 0.5M TRIS-HCl-pH 6.8 (7.5 mL), 10% SDS (2 mL) 0.1% bromophenol blue (0.5 mL), 100% glycerol (3 mL) and 12.5M 2-mercaptoethanol (0.3 mL)
1-1.3 mg/mL KinA:15 mM TRIS-HCl, pH 8.0, 6 mM KCl; 4 mM 2-mercaptoethanol; 40% glycerol (-20° C.)
1 mg/mL SpoOF: 17.5 mM TRIS-HCl, pH 8.0; 0.7 mM KCl; 0.7 mM MgCl2; 0.7 mM CaCl2; 5mM 2-mercaptoethanol; 30% Glycerol (-20° C.)
5% Stacking Gel: 40% 29:1 acrylamide:bis acrylamide (1.25 mL), 0.5M TRIS-HCl, pH 6.8 (2.5 mL), 10% SDS (0.1 mL), D-H2 O (6.15 mL) 10% ammonium persulfate (100 mL) and TEMED (25 mL)
SDS Running Buffer: TRIS-BASE (3.02 g), glycine (14.4 g) SDS (1 g), D-H2 O (to 1 L)
The reaction mixture was prepared from 8× Salts (87 μL), 1M TRIS, pH 8 (118 μL), 50% glycerol (63 μL), SpoOF (14.1 μL) and KinA (7.0 μL). Microcentrifuge tubes were charged with the reaction mixture (18.5 μL) and a 1.0 mM solution of the test compound in 5% DMSO (18.5 μL), and incubated for 15 min on ice. 100 mM ATP solution (3.0 μl, containing 625 μCi [^32 P]ATP) was added, and the mixture left for 10 minutes at room temperature. The reaction was quenched with 5× loading dye (10 μL per tube) and the samples were loaded on a prepared 5% Stacking Gel, or stored on dry ice until ready for use. The prepared wells were filled with SDS Running Buffer, samples were loaded into the wells, and 80 volts were applied to the gel until the dye front reached the bottom of the stacking gel. The voltage was then increased to 250 volts until electrophoresis was complete. Radioactive bands in the gel corresponding to phosphorylated KinA and SpoOF were imaged and quantitated with a phosphoimager.
If either enzyme was inhibited (as evidenced by the absence of labelled protein in the developed gel), an IC50 was calculated by running the assay with a range of inhibitor concentrations from 1 to 500 μM. After electrophoresis of the reaction mixtures, percent inhibition was determined by measuring the concentration of radioactive phosphorus with a phosphoimager and calculating the values using a software program (BioRad Molecular Analyst). IC50 values of less than 500 μM are considered active.

In turn, “3,4-Dihydro-4-(2,4-dichlorobenzyl)-2-{2-[4-(2-guanidinoethyl)phenoxy]ethyl}-3-oxo-2H-1,4-benzoxazine [Compound 141]” returned a half-inhibitory concentration (IC50) of 37 µM.

Regarding `CC(C)(C)OC(=O)NCc1ccc(OCCC2Oc3ccccc3N(Cc3cccc(Cl)c3)C2=O)cc1` (centres unmarked) [Compound 1, 2-[2-[4-(t-Butoxycarbonylaminomethyl)phenoxy]ethyl]-4-(3-chlorobenzyl)-3,4-dihydro-3-oxo-2H-1,4-benzoxazine], the IC50 was determined as 253 µM. Against the preceding molecule, the IC50 is about 6.8-fold higher.

`CC(C)(C)OC(=O)NCc1ccc(OCCC2Oc3ccccc3N(Cc3ccc(Cl)cc3)C2=O)cc1` (centres unmarked) [Compound 3, 2-[2-[4-(t-Butoxycarbonylaminomethyl)phenoxy]ethyl]-4-(4-chlorobenzyl)-3,4-dihydro-3-oxo-2H-1,4-benzoxazine] displayed a half-inhibitory concentration (IC50) of 283 µM.

`CC(C)(C)OC(=O)NCCc1cccc(OCCC2Oc3ccccc3N(Cc3ccc(Cl)cc3)C2=O)c1` (centres unmarked) [Compound 7, 2-{2-[3-(2-t-Butoxycarbonylaminoethyl)phenoxy]ethyl}-4-(4-chlorobenzyl)-3,4-dihydro-3-oxo-2H-1,4-benzoxazine] came in with an IC50 of 308 µM.

`NCc1cccc(OCCC2Oc3ccccc3N(Cc3ccc(Cl)cc3)C2=O)c1` (centres unmarked) [Compound 10, 2-[2-[3-(Aminomethyl)phenoxy]ethyl]-4-(4-chlorobenzyl)-3,4-dihydro-3-oxo-2H-1,4-benzoxazine] gave a half-inhibitory concentration (IC50) of 122 µM.

Molecule `NCc1cccc(OCCC2Oc3ccccc3N(Cc3ccccc3Cl)C2=O)c1` (centres unmarked) [Compound 12, 2-[2-[3-(Aminomethyl)phenoxy]ethyl]-4-(2-chlorobenzyl)-3,4-dihydro-3-oxo-2H-1,4-benzoxazine] yielded an IC50 of 140 µM. The IC50 values of the last two molecules are within 1.5-fold of each other.

In turn, `CC(C)(C)OC(=O)NCc1ccc(OCCC2Oc3ccccc3N(Cc3ccccc3Cl)C2=O)cc1` (centres unmarked) [Compound 13, 2-[2-[4-(t-Butoxycarbonylaminomethyl)phenoxy]ethyl]-4-(2-chlorobenzyl)-3,4-dihydro-3-oxo-2H-1,4-benzoxazine] had an IC50 of 272 µM.

As to `NCc1ccc(OCCC2Oc3ccccc3N(Cc3ccccc3Cl)C2=O)cc1` (centres unmarked) [Compound 14, 2-[2-[4-(Aminomethyl)phenoxy]ethyl]-4-(2-chlorobenzyl)-3,4-dihydro-3-oxo-2H-1,4-benzoxazine], the 50% inhibitory concentration (IC50) worked out at 172 µM.

Turning to `CC(C)(C)OC(=O)NCCc1cccc(OCCC2Oc3ccccc3N(Cc3ccccc3Cl)C2=O)c1` (centres unmarked) [Compound 15, 2-[2-[3-(2-(t-Butoxycarbonylamino)ethyl)phenoxy]ethyl]-4-(2-chlorobenzyl)-3,4-dihydro-3-oxo-2H-1,4-benzoxazine], the concentration for half-maximal inhibition (IC50) was 165 µM.

For the molecule `CC(C)(C)OC(=O)NCCc1ccc(OCCC2Oc3ccccc3N(Cc3ccccc3Cl)C2=O)cc1` (centres unmarked) [Compound 17, 2-[2-[4-(2-(t-Butoxycarbonylamino)ethyl)phenoxy]ethyl]-4-(2-chlorobenzyl)-3,4-dihydro-3-oxo-2H-1,4-benzoxazine], the IC50 turned out to be 352 µM.

`NCCc1ccc(OCCC2Oc3ccccc3N(Cc3ccccc3Cl)C2=O)cc1` (centres unmarked) [Compound 18, 2-[2-[4-(2-Aminoethyl)phenoxy]ethyl]-4-(2-chlorobenzyl)-3,4-dihydro-3-oxo-2H-1,4-benzoxazine] gave a 50% inhibitory concentration (IC50) of 264 µM.

As to `N=C(N)NCCc1ccc(OCCC2Oc3ccccc3N(Cc3ccccc3Cl)C2=O)cc1` (centres unmarked) [Compound 20, 4-(2-Chlorobenzyl)-2-[2-[4-(2-guanidinoethyl)phenoxy]ethyl]-3,4-dihydro-3-oxo-2H-1,4-benzoxazine], the half-maximal inhibitory concentration (IC50) is reported as 16 µM.

`N=C(N)NCc1ccc(OCCC2Oc3ccccc3N(Cc3ccc(Cl)cc3)C2=O)cc1` (centres unmarked) [Compound 21, 4-(4-Chlorobenzyl)-2-[2-[4-(guanidinomethyl)phenoxy]ethyl]-3,4-dihydro-3-oxo-2H-1,4-benzoxazine]: the IC50 was 26 µM.

Molecule `Cc1ccc2c(c1)N(Cc1cccc(Cl)c1)C(=O)C(CCOc1ccc(CCNC(=N)N)cc1)O2` (centres unmarked) [Compound 24, 4-(3-Chlorobenzyl)-3,4-dihydro-2-[2-[4-(2-guanidinoethyl)phenoxy]ethyl]-6-methyl-3-oxo-2H-1,4-benzoxazine] came in with an IC50 of 56 µM.

What is called IC50 is the concentration at which inhibition is half-maximal. The low end stands for greater potency, the high end for weaker potency.
